Several values for one entry are separate records, joined by “and”; a condition that tells them apart may be missing. Equal entries are not always repeated.
Tests used:
Format in all cases: cell-based, human
[1] = tested on: differentiated SH-SY-5Y cells; test: Intracellular ROS by DCFD fluorescence in differentiated SH-SY-5Y cells
Method: Cultured cells were used to test individual agents and formulations. In general, SH-SY-5Y human neuroblastoma cells were cultured in DMEM (Cellgro) containing 10% fetal bovine serum in 5% CO2.
For treatments with Abeta, differentiated cultures were transferred to medium without serum and treated for two hours with 20 μM Abeta25-35 (Sigma Chemical Co., St. Louis, Mo.). […] Louis, Mo.). In experiments calling for treatment of cell cultures with N-acetyl cysteine (NAC; NALC), cultures were treated with 10 mM NAC (Sigma Chemical Co., St. Louis, Mo.) after the culture was grown for two hours in serum-free medium.
Intracellular reactive oxygen species (ROS) were monitored as described in Ekinci et al., 1999 (J. Biol. Chem., 274:30322-30327). Briefly, cells were incubated for 30 minutes with dichloro-fluorescein diacetate (DCFD; acetoxymethyl ester; Molecular Probes, Inc., Eugene, Oreg.), which is used to detect intracellular peroxide levels. Incubation was followed by rinsing of cultures in serum-free medium and immediate capture of images using UV optics. Images were captured under epifluorescent and phase-contrast illumination using a DAGE CCL-72 cooled CCD camera via a Scion LG-3 frame grabber operated by NIH Image (see the Internet at rsb.info.nih.gov/nih-image). Images were then stored as PICT files on a Macintosh Power PC 7100AV for subsequent analysis. At least 100 cells in randomly-selected fields from duplicate cultures derived from multiple experiments were scored for fluorescent intensity using NIH Image analysis software. Representative background areas devoid of cells were similarly analyzed and subtracted from cell values to yield net densitometric values. All fields for each individual assay were illuminated, captured, and processed under identical settings. Corresponding phase-contrast images were obtained. Cell aggregates were excluded from the assays; only individual cells were quantified. Values were exported to Excel for statistical analyses using Student's t test.
For monitoring of intracellular peroxide concentrations as an index of ROS, cultures received 10 μl/ml DFCD (2′7′-dichlorofluorescein diacetate; Kodak) for 20 minutes. Cultures were then visualized under fluorescein UV optics (perikaryon; Ekinci and Shea, 1999, supra).

[2] = tested on: differentiated SH-SY-5Y cells; test: Externalized phosphatidylserine (meracyanine fluorescence) as index of apoptosis in SH-SY-5Y cells
Method: Levels of externalized phosphatidylserine (PS) were used as a measure of apoptosis (Rimon et al., 1997, J. Neurosci. Res., 48:563-570). Briefly, cultures were subjected to treatments then rinsed with PBS and incubated with 10 μl/ml merocyanine (Upstate Biotech, Lake Placid, N.Y.), followed by examination under rhodamine optics (Ekinci et al, 1999, J. Biol. Chem., 274:30322-30327).
The question of whether folate deficiency is associated with apoptosis was investigated. […] Overall detachment, a further sign of cell death, was evident by the seventh day in the serum-deprived cultures. The detachment phenomenon precluded longer experiments.
The effect of ALCAR on differentiated SH-SY-5Y cells treated with Abeta was examined. Cells were cultured in 20 μM Abeta in the presence and absence of ALCAR. Some cultures were pretreated with 50 μM ALCAR for 30 minutes. In these experiments, the ALCAR-containing medium was replaced with medium containing Abeta and no ALCAR then incubated for two hours before being assayed. Cultures were assayed for ROS, apoptosis, and ATP.

SH-SY-5Y cells = test: HPLC of homocysteine in SH-SY-5Y cell lysates and medium
Method: Glutathione levels were quantified in homogenates of SH-SY-5Y cells. Cultures were rinsed twice with Tris-buffered saline (TBS), scraped from the plate in a small volume of TBS and homogenized on ice. Medium was also utilized for analysis of HCY along with cellular lysates, since HCY is normally exported from cells. Homogenates (100 μl) were reduced by mixing with 50 μl of 100 μM N-acetylcysteine or with 30 μl of 30 μM cystamine (as an internal standard) and 10 μl of tri-carboxyethylphosphine (100 mg/ml in 0.05 M HCl). Samples were vortexed, incubated at room temperature for 30 minutes, then centrifuged at 10,000×g for 10 minutes. 80 μl of the resulting supernatant were combined with 160 μl of 2 M boric acid/4 mM EDTA (pH 10.5), followed by 80 μl of 1.0 mg/ml SBDF [7-fluorobenzo-2-oxa-1,3-diazole-4-sulfonate] in boric acid/EDTA buffer). Samples were mixed, incubated for 60 minutes at 60° C., equilibrated to reach temperature, and 50 μl of the sample was then injected into a Hewlett Packard model 1090 HPLC, which is used with a 1046A fluorescence detector and a Hewlett Packard 4.6×60 mm high-speed analytical column packed with 3 μM ODs (C18) Hypersil silica. The mobile phase consisted of methanol/0.2 M acetate buffer pH 4.0 (2/98 by volume). Glutathione concentrations were then determined by comparison of peak area ratios of glutathione to the internal standard N-acetylcysteine in the sample compared to peak areas obtained for a glutathione standard curve. Samples were derived from 3-4 normal and 3-4 ApoE−/− mice for each dietary condition, from ≧2 independent experiments (total n≧6 for each diet for both experiments).
Medium was then decanted, cells were scraped from the plate and homogenized, and medium and cellular lysates, along with an aliquot of fresh medium that had not been in contact with cells, were subjected to HPLC analyses.

## Nc1nc2ncc(CNc3ccc(C(=O)N[C@@H](CCC(=O)O)C(=O)O)cc3)nc2c(=O)[nH]1 [folate, folic acid]
[1]; 5×folate (20 mg/l), 20 μM Abeta two hours
  Abeta-induced increase in ROS: prevented
[1]; 10×folate compared to 1-5×folate
  ROS in otherwise untreated cells: marginal decrease in ROS
[1]; folate (control), two hours
  ROS Mean ± SEM: 7.6 ± 0.3
[1]; folate deprivation, compared to cells cultured in the presence of folate (Example 6)
  increase in ROS: 64±5%
[1]; no folate, two hours
  ROS Mean ± SEM: 10.5 ± 0.5
[1]; no folate, two hours, vs cultures receiving folate
  ROS % increase vs. control: 38±4% and 38%
[1]; single agent, control cells and cells exposed to Abeta, two hours
  ROS: reduced ROS
[2]; +folate, Day 1, without serum
  meracyanine fluorescence (externalized PS) Mean ± SEM: 34.0 ± 1.2 arbitrary fluorescent units
[2]; +folate, Day 3, without serum
  meracyanine fluorescence (externalized PS) Mean ± SEM: 40.9 ± 2.0 arbitrary fluorescent units
[2]; +folate, Day 5, without serum
  meracyanine fluorescence (externalized PS) Mean ± SEM: 63.7 ± 3.6 arbitrary fluorescent units
[2]; −folate, Day 1, without serum
  meracyanine fluorescence (externalized PS) Mean ± SEM: 31.2 ± 1.4 arbitrary fluorescent units
[2]; −folate, Day 3, without serum
  meracyanine fluorescence (externalized PS) Mean ± SEM: 44.1 ± 4.1 arbitrary fluorescent units
[2]; −folate, Day 5, without serum
  meracyanine fluorescence (externalized PS) Mean ± SEM: 112.7 ± 5.7 arbitrary fluorescent units
SH-SY-5Y cells; both before and after folate deprivation
  homocysteine levels within cell lysates: < 1 nM
SH-SY-5Y cells; cells cultured two hours in the absence of folate
  homocysteine levels in medium: approximately 300 nM
SH-SY-5Y cells; cells cultured two hours in the presence of folate
  homocysteine levels in medium: about 30 nM

Source: US8173618B2, “Formulations for reducing neuronal degeneration” (University of Massachusetts, priority 2003, dated 2012)
